Structures are written as SMILES. Like-named read-outs stand apart in the source and are kept apart here.

One assay addresses KAT7 (Homo sapiens (Human), UniProt O95251). The assay is described as follows: KAT assay (SAMDI mass spectrometry), KAT7.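 Also: Baculovirus-expressed enzyme acetylating a histone peptide at room temperature, percent conversion from product and substrate peak areas, Ki from a Morrison tight-binding competitive fit.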 The assay is classed as biochemical.
For another assay, the target named is KAT6A (Homo sapiens (Human), UniProt Q92794). The assay is described as follows: KAT assay (SAMDI mass spectrometry), KAT6A.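 Also: Baculovirus-expressed KAT6A acetylating histone H3 (1-21) peptide (2 µM), 30-60 min at room temperature, % product conversion fitted to Morrison equation for tight-binding competitive inhibitors.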 The assay is classed as biochemical.
Chain of KAT6A (Q92794 whole entry): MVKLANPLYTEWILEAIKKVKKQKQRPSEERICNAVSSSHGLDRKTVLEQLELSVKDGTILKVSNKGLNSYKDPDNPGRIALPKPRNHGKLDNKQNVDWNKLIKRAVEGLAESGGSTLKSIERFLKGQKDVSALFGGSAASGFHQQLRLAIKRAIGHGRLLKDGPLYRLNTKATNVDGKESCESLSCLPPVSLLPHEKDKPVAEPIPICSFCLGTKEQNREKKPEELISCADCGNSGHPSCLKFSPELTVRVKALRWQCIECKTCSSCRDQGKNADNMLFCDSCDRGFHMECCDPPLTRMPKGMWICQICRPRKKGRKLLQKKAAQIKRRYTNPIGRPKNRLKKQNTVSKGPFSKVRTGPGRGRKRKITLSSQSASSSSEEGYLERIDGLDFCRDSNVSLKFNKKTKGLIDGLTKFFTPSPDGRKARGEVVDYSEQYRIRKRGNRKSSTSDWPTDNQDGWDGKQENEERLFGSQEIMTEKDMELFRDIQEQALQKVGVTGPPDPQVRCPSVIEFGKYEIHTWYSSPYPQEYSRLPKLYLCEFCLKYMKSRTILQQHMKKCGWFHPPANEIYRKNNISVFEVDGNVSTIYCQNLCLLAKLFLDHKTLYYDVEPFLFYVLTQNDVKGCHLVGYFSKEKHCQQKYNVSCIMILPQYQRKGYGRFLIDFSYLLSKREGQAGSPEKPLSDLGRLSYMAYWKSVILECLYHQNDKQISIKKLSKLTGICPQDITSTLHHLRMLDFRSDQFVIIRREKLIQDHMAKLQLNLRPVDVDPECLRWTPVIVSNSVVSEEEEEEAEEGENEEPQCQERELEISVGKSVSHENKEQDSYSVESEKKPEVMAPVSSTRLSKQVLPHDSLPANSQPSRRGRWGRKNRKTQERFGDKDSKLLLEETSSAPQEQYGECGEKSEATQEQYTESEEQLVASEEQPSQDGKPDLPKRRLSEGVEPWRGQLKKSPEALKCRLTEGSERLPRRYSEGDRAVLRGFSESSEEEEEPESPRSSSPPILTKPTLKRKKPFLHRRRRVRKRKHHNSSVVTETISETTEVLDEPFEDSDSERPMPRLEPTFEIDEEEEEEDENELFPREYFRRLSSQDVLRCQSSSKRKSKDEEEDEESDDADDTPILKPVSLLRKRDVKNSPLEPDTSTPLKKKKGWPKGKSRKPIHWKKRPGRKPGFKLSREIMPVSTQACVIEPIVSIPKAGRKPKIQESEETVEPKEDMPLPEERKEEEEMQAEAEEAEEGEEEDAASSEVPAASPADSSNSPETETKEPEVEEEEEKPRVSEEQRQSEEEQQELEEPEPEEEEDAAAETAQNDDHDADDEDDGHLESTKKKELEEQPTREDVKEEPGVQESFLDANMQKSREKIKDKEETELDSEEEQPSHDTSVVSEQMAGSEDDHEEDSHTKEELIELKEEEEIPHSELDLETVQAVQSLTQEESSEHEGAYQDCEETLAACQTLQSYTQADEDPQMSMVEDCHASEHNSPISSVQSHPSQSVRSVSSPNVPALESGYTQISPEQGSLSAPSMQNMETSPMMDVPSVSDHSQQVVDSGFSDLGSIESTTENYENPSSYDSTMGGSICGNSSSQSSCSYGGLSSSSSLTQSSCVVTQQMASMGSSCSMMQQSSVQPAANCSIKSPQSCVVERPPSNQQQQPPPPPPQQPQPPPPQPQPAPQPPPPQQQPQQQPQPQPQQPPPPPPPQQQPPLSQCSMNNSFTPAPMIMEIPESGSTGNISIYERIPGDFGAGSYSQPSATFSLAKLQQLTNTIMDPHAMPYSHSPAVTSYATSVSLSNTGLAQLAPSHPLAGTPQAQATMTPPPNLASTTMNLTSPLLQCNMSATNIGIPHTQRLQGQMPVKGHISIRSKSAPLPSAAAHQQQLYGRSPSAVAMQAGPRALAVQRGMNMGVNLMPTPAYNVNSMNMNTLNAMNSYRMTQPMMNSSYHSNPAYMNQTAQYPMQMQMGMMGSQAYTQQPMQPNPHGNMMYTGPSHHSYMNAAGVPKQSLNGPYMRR
Where [1] appears, read: read-out: KAT7 Ki at 1 μM AcCoA.
The mark [2] stands for this setting: read-out: KAT6a Ki at 1 μM AcCoA, 1 μM AcCoA.
[3] abbreviates: read-out: KAT6a Ki at 10 μM AcCoA, 10 μM AcCoA.
Where [4] appears, read: KAT6a Ki at 1 μM AcCoA, 1 μM AcCoA.

Chain of KAT7 (O95251 whole entry): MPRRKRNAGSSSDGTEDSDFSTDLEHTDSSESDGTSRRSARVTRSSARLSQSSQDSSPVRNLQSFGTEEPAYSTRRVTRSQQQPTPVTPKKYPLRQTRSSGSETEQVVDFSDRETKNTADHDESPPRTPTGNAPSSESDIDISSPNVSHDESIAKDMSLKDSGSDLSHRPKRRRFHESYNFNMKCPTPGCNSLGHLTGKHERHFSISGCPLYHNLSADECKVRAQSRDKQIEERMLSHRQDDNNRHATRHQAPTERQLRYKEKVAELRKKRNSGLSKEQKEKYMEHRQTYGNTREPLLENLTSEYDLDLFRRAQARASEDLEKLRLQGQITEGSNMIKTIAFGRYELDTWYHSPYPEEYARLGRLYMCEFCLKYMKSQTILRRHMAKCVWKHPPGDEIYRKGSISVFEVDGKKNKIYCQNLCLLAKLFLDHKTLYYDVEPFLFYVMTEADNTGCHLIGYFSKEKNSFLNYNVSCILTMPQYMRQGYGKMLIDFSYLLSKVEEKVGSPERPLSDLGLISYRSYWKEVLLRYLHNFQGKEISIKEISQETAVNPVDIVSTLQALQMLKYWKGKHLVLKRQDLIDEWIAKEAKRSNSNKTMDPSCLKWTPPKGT
Protocol for KAT6A: Prepare 10 mM stock solutions in 100% DMSO from solid material • 2. Serial dilute 10 mM, 1 mM or 0.1 mM compound stocks 3-fold in 100% DMSO for 11-point dose response
Prepare 1× assay buffer containing 10 mM Tris HCL pH 8.0, 2.5 mM NaCl, 0.5 mM EDTA, 0.005% BSG and 0.02% Tween-20 • 2. Dilute Histone peptide (CPC Scientific) and AcCoA (Sigma) together in assay buffer to 2×. • 3. Dilute KAT enzyme in assay buffer to 2×.
Enzyme reaction • 1. Final reaction conditions for each KAT assay in a 20 ul assay reaction volume: • i. KAT5 25 nM, 1 uM AcCoA, 2 uM H4 1-21 peptide, 30-minute reaction • ii. KAT6A 15 nM, 1 uM AcCoA, 2 uM H3 1-21 peptide, 45-minute reaction • iii. KAT6B 25 nM, 1 uM AcCoA, 2 uM H3 1-21 peptide, 60-minute reaction • iv. KAT7 12.5 nM, 1 uM AcCoA, 2 uM H3 1-21 peptide, 45-minute reaction • v. KAT8 15 nM, 1 uM AcCoA, 2 uM H3 1-21 peptide, 45-minute reaction • 2. Add 0.5 ul of diluted compound to the assay plate (384-well V-bottom polypropylene plates) or 0.5 ul of DMSO for control wells. • 3. Add 10 ul of 2× Histone peptide/2×AcCoA mix to the assay plate. • 4. Add 10 ul of 2× enzyme to the assay plate. • 5. Stop the reaction after the indicated time with the addition of 2 ul of 5% formic acid • 6. Each reaction was analyzed using self-assembled monolayer desorption/ionization time-of-flight mass spectrometry (Mrksich, Milan (2008) Mass Spectrometry of Self-Assembled Monolayers: A New Tool for Molecular Surface Science ACS Nano 2008 2 (1), 7-18; SAMDI Tech, Inc. (Chicago, Ill.)). • 7. Area under the curve (AUC) for both substrate and product peaks was determined for KAT5 at M.W. 2561 [Substrate+H]^+ and 2603 [Product+H]^+ with a +/−1 Da tolerance, respectively • 8. Area under the curve (AUC) for both substrate and product peaks was determined for KAT6a, KAT6B, KAT7 and KAT8 at M.W. 2723 [Substrate+H]^+ and 2765 [Product+H]^+ with a +/−1 Da tolerance, respectively. […] Percent conversion to product was calculated by: AUCProduct/(AUCsubstrate+AUCProduct).
IC50 values were determined by fitting the % conversion at each inhibitor concentration to the 4-parameter IC50 equation using Pfizer proprietary curve fitting software. • 2. Ki values were determined by fitting the % conversion at each inhibitor concentration to the Morrison equation for tightbinding competitive inhibitors using Pfizer proprietary curve fitting software.
KAT enzymes were expressed using a baculovirus expression system and purified at Pfizer, La Jolla. […] Acetyl coenzyme A was purchased from Sigma-Aldrich (St. Louis, Mo.). All other biochemical reagents were purchased from Sigma-Aldrich or ThermoFisher Scientific (Waltham, Mass.).
KAT assays were performed at room temperature in assay buffer containing 1 μM AcCoA, 2 μM histone peptide, 10 mM Tris HCL pH 8.0, 2.5 mM NaCl, 0.5 mM EDTA, 0.005% BSG and 0.02% Tween-20. 10 ul of 2× Histone peptide/AcCoA mix was added to a 384-well V-bottom polypropylene assay plate containing 0.5 ul of serially diluted test compound in 100% dimethyl sulfoxide (DMSO). To start the reaction, 10 ul of 2× enzyme solution was added to the assay plate. KAT assays were terminated after 30-60 minutes with the addition of 2 ul of 5% formic acid. All assays used histone H3 (1-21) peptide except for the KAT5 assay which used histone H4 (1-21) peptide. The final enzyme concentration for each KAT was as follows: KAT5, 25 nM; KAT6A, 15 nM; KAT6B, 25 nM; KAT7, 12.5 nM; KAT8 15 nM. Each reaction was analyzed using self-assembled monolayer desorption/ionization time-of-flight mass spectrometry (Mrksich, Milan (2008) Mass Spectrometry of Self-Assembled Monolayers: A New Tool for Molecular Surface Science ACS Nano 2008 2 (1), 7-18; SAMDI Tech, Inc. (Chicago, Ill.)).
Area under the curve (AUC) for both substrate and product peaks was determined for KAT5 at M.W. 2561 [Substrate+H]^+ and 2603 [Product+H]^+ with a +/−1 Da tolerance, respectively.

As a reminder, the Ki is the dissociation constant of the complex between target and ligand, obtained from inhibition or displacement. Take `COc1ccc(O)c(OC)c1S(=O)(=O)Nc1noc2cc(Cn3cccn3)cc(OC)c12` [Example 103, 3-hydroxy-2,6-dimethoxy-N-{4-methoxy-6-[(1H-pyrazol-1-yl)methyl]-1,2-benzoxazol-3-yl}benzene-1-sulfonamide]: the Ki at KAT7 (setting [1]) came out at 150 nM; on KAT6A (setting [2]), 0.3 nM; at KAT6A (setting [3]) it was 0.51 nM.
The corresponding values for `COc1cc(S(=O)(=O)Nc2noc3cc(Cn4cccn4)cc(OC)c23)ccc1F` [Example 82] are 640 nM, 16.9 nM and 12.2 nM.
For `COc1cc(Cn2cccn2)cc2onc(NS(=O)(=O)c3cc(F)c(F)cc3F)c12` [Example 86], the inhibitory constant (Ki) on KAT7 (setting [1]) was found to be 370 nM; on KAT6A (setting [2]) it was 28.9 nM; at KAT6A (setting [3]) it was 7.11 nM.
The corresponding values for `COc1cccc(S(=O)(=O)Nc2noc3cc(Cn4cccn4)cc(OC)c23)c1` [Example 59] are 220 nM, 13 nM and 6.25 nM.
`COc1cccc(OC)c1S(=O)(=O)Nc1noc2cc(C(O)c3ccon3)cc(OC)c12` (single isomer, unassigned) [Example 113]: the Ki was determined as 2800 nM on KAT7 (KAT7 Ki at 1 μM AcCoA) and 14 nM at KAT6A (setting [4]).
`COc1ccc(O)c(S(=O)(=O)Nc2noc3cc(Cn4cccn4)cc(OC)c23)c1` [Example 83]: the figures for the Ki on KAT7 (setting [1]), at KAT6A (setting [2]) and at KAT6A (setting [3]) were 780 nM, 13.7 nM and 7.76 nM, respectively.
With `COc1ccc(Cl)cc1S(=O)(=O)Nc1noc2cc(Cn3cccn3)ccc12` [Example 36], the inhibitory constant (Ki) on KAT7 (setting [1]) was determined as 980 nM; at KAT6A (setting [2]) it was 17 nM.
With `COc1cc(Cn2cccn2)cc2onc(NS(=O)(=O)c3ccccc3C(F)(F)F)c12` [Example 52], the figures for the Ki on KAT7 (setting [1]), at KAT6A (setting [2]) and at KAT6A (setting [3]) were 660 nM, 14.6 nM and 7.32 nM, respectively.
In the case of `COc1cccc(OC)c1S(=O)(=O)Nc1noc2cc(C(O)c3cc[nH]n3)cc(OC)c12` (single isomer, unassigned) [Example 118], the values for the inhibition constant Ki at KAT7 (KAT7 Ki at 1 μM AcCoA) and at KAT6A (setting [4]) were 2300 nM and 357 nM, respectively.
For `COc1ccccc1S(=O)(=O)Nc1noc2cc(Cn3nccn3)cc(OC)c12` [Example 133], the Ki at KAT7 (setting [1]) came out at 19.2 nM; at KAT6A (setting [2]), 2.9 nM.
For the compound `COc1cc(Cn2cccn2)cc2onc(NS(=O)(=O)c3cc(F)c(Cl)cc3F)c12` [Example 68], the figures for the Ki at KAT7 (setting [1]), at KAT6A (setting [2]) and on KAT6A (setting [3]) were 250 nM, 14.9 nM and 10.5 nM, respectively.
`COc1ccc(S(=O)(=O)Nc2noc3cc(Cn4cccn4)cc(OC)c23)c(C)c1F` [Example 85]: the Ki at KAT7 (setting [1]) was determined as 1140 nM; on KAT6A (setting [2]), 13.3 nM; at KAT6A (setting [3]), 8.77 nM.
With `COc1ccc(S(=O)(=O)Nc2noc3cc(Cn4cccn4)ccc23)c(OC)c1` [Example 35], the Ki at KAT7 (setting [1]) was found to be 420 nM; at KAT6A (setting [2]) it was 15 nM.
On to `COc1cc(C)ccc1S(=O)(=O)Nc1noc2cc(Cn3cccn3)ccc12` [Example 38], for which the Ki at KAT7 (setting [1]) was determined as 530 nM; on KAT6A (setting [2]), 16 nM.
Turning to `Cc1ccc(S(=O)(=O)Nc2noc3cc(Cn4cccn4)c(C)cc23)cc1C` [Example 131], the Ki at KAT7 (setting [1]) was determined as 662 nM; on KAT6A (setting [2]) it was 28.3 nM.
As for `COc1cccc(OC)c1S(=O)(=O)Nc1noc2cc(Cn3cc(O)cn3)cc(OC)c12` [Example 105, N-{6-[(4-hydroxy-1H-pyrazol-1-yl)methyl]-4-methoxy-1,2-benzoxazol-3-yl}-2,6-dimethoxybenzene-1-sulfonamide], the Ki at KAT7 (setting [1]) is 230 nM; at KAT6A (setting [2]), 3.08 nM; on KAT6A (setting [3]) it was 6.28 nM.
In the same order, the values of `COc1cccc(OC)c1S(=O)(=O)Nc1noc2cc(Cc3cnoc3)cc(OC)c12` [Example 122] are 7400 nM, 164 nM and 25 nM.
Regarding `COc1ccccc1S(=O)(=O)Nc1noc2cc(Cn3cccn3)c(F)c(OC)c12` [Example 129], the Ki was 10.6 nM at KAT7 (setting [1]) and 0.33 nM at KAT6A (setting [2]).
In the same order, the values of `COc1cccc(OC)c1S(=O)(=O)Nc1noc2cc(Cc3cnn(C)c3)cc(OC)c12` [Example 124] are 6290 nM and 700 nM.

(Values after patent US11492346B2, “Benzisoxazole sulfonamide derivatives” (Pfizer Inc., priority 2019, dated 2022).)
